Reference: patent US20260272944A1, “PYRIDO[3,4-D]PYRIMIDINONE AND PYRIMDLLNE ARYL HYDROCARBON RECEPTOR ANTAGONISTS AND USES THEREOF” (ALLIANTHERA (SUZHOU) BIOPHARMACEUTICAL CO., LTD., priority 2023, published 2026)

Biological target: T1, Human Aryl Hydrocarbon Receptor (AhR) (Homo sapiens, UniProt P35869)
T1 construct: purchased INDIGO Bioscience IB06001-32; host or cells: AhR Reporter Cell (the kit's proprietary reporter cells)
T1 sequence (P35869 11-848): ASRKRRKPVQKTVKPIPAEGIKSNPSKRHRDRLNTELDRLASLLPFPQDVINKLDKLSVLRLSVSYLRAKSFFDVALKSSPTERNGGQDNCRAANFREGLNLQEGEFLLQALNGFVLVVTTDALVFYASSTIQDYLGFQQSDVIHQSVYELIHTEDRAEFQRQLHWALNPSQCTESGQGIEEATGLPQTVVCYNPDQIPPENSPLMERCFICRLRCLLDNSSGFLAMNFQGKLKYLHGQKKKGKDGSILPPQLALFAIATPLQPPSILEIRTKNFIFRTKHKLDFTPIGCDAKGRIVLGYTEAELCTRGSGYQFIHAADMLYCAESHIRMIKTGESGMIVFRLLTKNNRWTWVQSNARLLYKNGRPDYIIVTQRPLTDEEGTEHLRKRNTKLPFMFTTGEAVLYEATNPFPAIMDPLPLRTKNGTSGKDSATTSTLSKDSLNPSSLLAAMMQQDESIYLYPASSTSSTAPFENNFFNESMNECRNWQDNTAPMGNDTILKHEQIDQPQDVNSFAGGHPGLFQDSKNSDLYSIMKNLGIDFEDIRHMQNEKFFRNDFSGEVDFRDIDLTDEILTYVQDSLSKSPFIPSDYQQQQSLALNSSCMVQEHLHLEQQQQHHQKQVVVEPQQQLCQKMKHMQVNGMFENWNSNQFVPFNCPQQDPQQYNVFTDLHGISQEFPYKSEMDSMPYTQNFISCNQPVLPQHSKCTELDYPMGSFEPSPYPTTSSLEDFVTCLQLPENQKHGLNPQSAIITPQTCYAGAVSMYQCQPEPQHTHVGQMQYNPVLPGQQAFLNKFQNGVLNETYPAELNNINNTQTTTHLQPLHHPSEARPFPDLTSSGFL
Test: AhR reporter assay (Human Aryl Hydrocarbon Receptor (AhR) Reporter Assay System, INDIGO Bioscience)
Type: cell-based
Conditions: AHR inhibition at 10 nM test compound; AhR Reporter Cells activated with 200 μM kynurenic acid, 24 hours; firefly luciferase; normalized by positive and negative controls
Protocol: The AhR reporter assay was performed following the protocol of the Human Aryl Hydrocarbon Receptor (AhR) Reporter Assay System (INDIGO Bioscience, #IB06001-32). AhR Reporter Cell was thawed and pre-incubated in Cell Recovery Medium (CRM) for 6 hours. The media was then removed and the cells were incubated with Compound Screening Medium (CSM) supplemented with 200 μM kynurenic acid for 24 hours in the absence (negative control) or presence of 10 nM test compounds. For positive inhibition control, cells activated with 200 μM kynurenic acid were incubated in the presence of literature AHR antagonists; alternatively un-activated cells were used as positive inhibition control. Following 24 hours incubation, the media was removed and Luciferase Detection Reagent (LDR) added. The firefly luciferase activity was quantified using a plate reader. Results were normalized by positive and negative controls.
The results of AHR inhibition at 10 nM for compounds as disclosed herein is reported in the below table.

Structure (SMILES)	inhibition at 0.01 µM
C[C@@H](CO)n1cnc2c(-c3cnn(C)c3)nc(-c3ccc(-c4ccccc4F)nc3)cc2c1=O [Compound 1]	56%
C[C@@H](CO)n1cnc2c(-c3cnn(C)c3)nc(/C=C/c3ccccc3)cc2c1=O [Compound 2]	51%
C[C@@H](CO)n1cnc2c(-c3cnn(C)c3)nc(-c3ccc(N4CCOCC4)cc3)cc2c1=O [Compound 3]	66%
C[C@@H](CO)n1cnc2c(-c3cnn(C)c3)nc(-c3ccc(N4CC5CCC(C4)O5)cc3)cc2c1=O [Compound 4]	53%
C[C@@H](CO)n1cnc2c(-c3cnn(C)c3)nc(-c3ccc(C4CCOCC4)cc3)cc2c1=O [Compound 5]	40%
C[C@@H](CO)n1cnc2c(-c3cnn(C)c3)nc(-c3ccc(-c4ccc(F)cc4)nc3)cc2c1=O [Compound 6]	96%
C[C@@H](CO)n1cnc2c(-c3cnn(C)c3)nc(-c3ccc(-c4ccc(Cl)cc4)nc3)cc2c1=O [Compound 7]	90%
C[C@@H](CO)n1cnc2c(-c3cnn(C)c3)nc(-c3ccc(-c4ccc(F)nc4)nc3)cc2c1=O [Compound 8]	83%
C[C@@H](CO)n1cnc2c(-c3cnn(C)c3)nc(-c3ccc(C4=CCOCC4)nc3)cc2c1=O [Compound 9]	29%
Cc1nn(C)c2cc(-c3cc4c(=O)n([C@@H](C)CO)cnc4c(-c4cnn(C)c4)n3)ccc12 [Compound 10]	28%
C[C@@H](CO)n1cnc2c(-c3cnn(C)c3)nc(-c3ccc(C4CCOCC4)nc3)cc2c1=O [Compound 11]	3%
C[C@@H](CO)n1cnc2c(-c3cnn(C)c3)nc(-c3ccc(-c4cccc(F)c4)nc3)cc2c1=O [Compound 12]	72%
C[C@@H](CO)n1cnc2c(-c3cnn(C)c3)nc(-c3ccc(N4CCCCC4)cc3)cc2c1=O [Compound 13]	64%
C[C@@H](CO)n1cnc2c(-c3cnn(C)c3)nc(N3CCN(c4ccc(F)cc4)CC3)cc2c1=O [Compound 14]	85%
C[C@@H](CO)n1cnc2c(-c3cnn(C)c3)nc(N3Cc4ccccc4C3)cc2c1=O [Compound 15]	99%
C[C@@H](CO)n1cnc2c(-c3cnn(C)c3)nc(N3CC=C(c4ccc(F)cc4)CC3)cc2c1=O [Compound 16]	82%
C[C@@H](CO)n1cnc2c(-c3cnn(C)c3)nc(N3CC4CCC(C3)N4c3ccc(F)cc3)cc2c1=O [Compound 17]	35%
C[C@@H](CO)n1cnc2c(-c3cnn(C)c3)nc(/C=C/c3ccc(F)cc3)cc2c1=O [Compound 20]	70%
C[C@@H](CO)n1cnc2c(-c3cnn(C)c3)nc(-c3ccc(C(=O)N4CCOCC4)cc3)cc2c1=O [Compound 21]	-0.3%
C[C@@H](CO)n1cnc2c(-c3cnn(C)c3)nc(-c3ccc(N4CCOCC4)nc3)cc2c1=O [Compound 25]	8%
C[C@@H](CO)n1cnc2c(-c3cnn(C)c3)nc(-c3cnc(N4CCOCC4)nc3)cc2c1=O [Compound 26]	24%
CC1COCCN1c1ccc(-c2cc3c(=O)n([C@@H](C)CO)cnc3c(-c3cnn(C)c3)n2)cn1 (stereo partly shown) [Compound 27]	45%
C[C@@H](CO)n1cnc2c(-c3cnn(C)c3)nc(-c3ccc(C(=O)N4CCCNCC4)cc3)cc2c1=O [Compound 28]	-5%
C[C@@H](CO)n1cnc2c(-c3cnn(C)c3)nc(-c3ccc(C(=O)N4CCC(O)C4)cc3)cc2c1=O (stereo partly shown) [Compound 29]	8%
C[C@@H](CO)n1cnc2c(-c3cnn(C)c3)nc(-c3ccc(C(=O)N4CCC(N)CC4)cc3)cc2c1=O [Compound 30]	-5%
C[C@@H](CO)n1cnc2c(-c3cnn(C)c3)nc(-c3ccc(N4CCN(S(C)(=O)=O)CC4)cc3)cc2c1=O [Compound 31]	24%
C[C@@H](CO)n1cnc2c(-c3cnn(C)c3)nc(-c3ccc(C(=O)N4CCNCC4)cc3)cc2c1=O [Compound 32]	-16%
C[C@@H](CO)n1cnc2c(-c3cnn(C)c3)nc(-c3ccc(C(=O)N4CCC(N)C4)cc3)cc2c1=O (stereo partly shown) [Compound 34]	6%

Structure (SMILES)	inhibition at 0.01 µM
C[C@@H](CO)n1cnc2c(-c3cnn(C)c3)nc(-c3ccc(C(=O)N4CCC(O)CC4)cc3)cc2c1=O [Compound 35]	5%
C[C@@H](CO)n1cnc2c(-c3cnn(C)c3)nc(-c3ccc(NC(=O)CN4CCOCC4)nc3)cc2c1=O [Compound 39]	-4%
C[C@@H](CO)n1cnc2c(-c3cnn(C)c3)nc(-c3ccc(-c4cncc(F)c4)nc3)cc2c1=O [Compound 41]	39%
C[C@@H](CO)n1cnc2c(-c3cnn(C)c3)nc(-c3ccc(NC(=O)CN4CCOCC4)cc3)cc2c1=O [Compound 42]	16%
C[C@@H](CO)n1cnc2c(-c3cnn(C)c3)nc(-c3ccc(-c4ccc(=O)n(C)c4)cc3)cc2c1=O [Compound 44]	44%
C[C@@H](CO)n1cnc2c(-c3cnn(C)c3)nc(N3Cc4cccc(F)c4C3)cc2c1=O [Compound 52]	35%
Cc1cc(N2CCOCC2)ccc1-c1cc2c(=O)n([C@@H](C)CO)cnc2c(-c2cnn(C)c2)n1 [Compound 54]	1%
C[C@@H](CO)n1cnc2c(-c3cnn(C)c3)nc(N3Cc4ccc(F)cc4C3)cc2c1=O [Compound 56]	99%
Cc1cc(-c2cc3c(=O)n([C@@H](C)CO)cnc3c(-c3cnn(C)c3)n2)ccc1N1CCOCC1 [Compound 57]	29%
C[C@@H](CO)NC(=O)c1cc(-c2ccc(-c3ccccc3F)nc2)nc(-c2cnn(C)c2)n1 [Compound 59]	24%
C[C@@H](CO)NC(=O)c1cc(N2CCN(c3ccc(F)cc3)CC2)nc(-c2cnn(C)c2)n1 [Compound 60]	21%
C[C@@H](CO)NC(=O)c1cc(-c2ccc(-c3ccc(F)cc3)nc2)nc(-c2cnn(C)c2)n1 [Compound 61]	62%
C[C@@H](CO)NC(=O)c1cc(-c2ccc(N3CCOCC3)cc2)nc(-c2cnn(C)c2)n1 [Compound 62]	29%
C[C@@H](CO)NC(=O)c1cc(N2Cc3ccccc3C2)nc(-c2cnn(C)c2)n1 [Compound 63]	58%
C[C@@H](CO)NC(=O)c1cc(N2Cc3ccccc3C2=O)nc(-c2cnn(C)c2)n1 [Compound 64]	49%
C[C@@H](CO)NC(=O)c1cc(N2CCN(c3ccc(F)cc3)CC2)nc(-c2cnn(C(F)(F)F)c2)n1 [Compound 65]	7%
C[C@@H](CO)NC(=O)c1cc(N2CCN(c3ccc(F)cc3)CC2)nc(-c2cccc(F)c2)n1 [Compound 66]	69%
Cc1nn(C)c2cc(-c3cc(C(=O)N[C@@H](C)CO)nc(-c4cnn(C)c4)n3)ccc12 [Compound 67]	33%
C[C@@H](CO)NC(=O)c1cc(-c2ccc(-c3cccc(F)c3)nc2)nc(-c2cnn(C)c2)n1 [Compound 68]	62%
C[C@@H](CO)NC(=O)c1cc(-c2ccc(-c3ccc(F)nc3)nc2)nc(-c2cnn(C)c2)n1 [Compound 69]	60%
C[C@@H](CO)NC(=O)c1cc(-c2ccc(-c3ccc(Cl)cc3)nc2)nc(-c2cnn(C)c2)n1 [Compound 70]	87%
C[C@@H](CO)NC(=O)c1cc(-c2ccc(C3CCOCC3)cc2)nc(-c2cnn(C)c2)n1 [Compound 71]	37%
C[C@@H](CO)NC(=O)c1cc(N2CCN(c3ccc(F)cc3)[C@@H](C)C2)nc(-c2cnn(C)c2)n1 [Compound 72]	13%
C[C@@H]1CN(c2cc(C(=O)N[C@@H](C)CO)nc(-c3cnn(C)c3)n2)CCN1c1ccc(F)cc1 [Compound 73]	23%
C[C@@H](CO)NC(=O)c1cc(N2CC3CCC(C2)N3c2ccc(F)cc2)nc(-c2cnn(C)c2)n1 [Compound 74]	13%
C[C@@H](CO)NC(=O)c1cc(N2CCN(C(=O)c3ccc(F)cc3)CC2)nc(-c2cnn(C)c2)n1 [Compound 75]	24%
C[C@@H]1CN(c2ccc(F)cc2)CCN1c1cc(C(=O)N[C@@H](C)CO)nc(-c2cnn(C)c2)n1 [Compound 76]	1%
